Literature values in patent publication US5370879A, “Formulations and their use in the treatment of neurological diseases” (Elan Corporation, plc, priority 1990, dated 1994).

Key:
[1] = test system: patients with Alzheimer's disease
MS patients [2] = test system: MS patients
[3] = test system: potassium ion flow in nerve impulse transmission
MS patients [4] = conditions: orally in multiple daily doses
[5] = orally in multiple daily doses over 2-5 days

SMILES	mental functions [1]	conduction of nerve impulses (MS patients [2])	symptoms in MS patients (MS patients [2])	improvements noted in clinical trials (MS patients [2]; [5])	side effects (MS patients [2]; [5])	conduction in blocked demyelinated nerves [3]	potassium ion flow in nerve impulse transmission [3]	specific neurological deficits (MS patients [4])	visual evoked response latencies (MS patients [4])
Nc1ccncc1 [Example 4-AP, 4-Aminopyridine]	improve the mental functions	improve the conduction of nerve impulses	alleviating symptoms in MS patients	mild to marked improvements	minimal side effects	effective in restoring conduction in blocked demyelinated nerves	slow the potassium ion flow	–	–
Nc1ccncc1N [3,4-DAP, 3,4-Di-aminopyridine]	–	–	–	–	–	–	–	improve specific neurological deficits	improve
